Data published in patent publication US9855270B2, “Methods and compositions for modulating estrogen receptor mutants” (priority 2014, dated 2018).
Substitutions are numbered along the chain they refer to. Like-named read-outs stand apart in the source and are kept apart here.

Experiments:
ER-α E380Q = target: T1, ER-α E380Q (Homo sapiens, UniProt P03372, E380Q); conditions: Agonist Mode; for Efficacy (Emax): −E2, relative to vehicle treated wild-type ER-α
T1 sequence (P03372 1-595 E380Q): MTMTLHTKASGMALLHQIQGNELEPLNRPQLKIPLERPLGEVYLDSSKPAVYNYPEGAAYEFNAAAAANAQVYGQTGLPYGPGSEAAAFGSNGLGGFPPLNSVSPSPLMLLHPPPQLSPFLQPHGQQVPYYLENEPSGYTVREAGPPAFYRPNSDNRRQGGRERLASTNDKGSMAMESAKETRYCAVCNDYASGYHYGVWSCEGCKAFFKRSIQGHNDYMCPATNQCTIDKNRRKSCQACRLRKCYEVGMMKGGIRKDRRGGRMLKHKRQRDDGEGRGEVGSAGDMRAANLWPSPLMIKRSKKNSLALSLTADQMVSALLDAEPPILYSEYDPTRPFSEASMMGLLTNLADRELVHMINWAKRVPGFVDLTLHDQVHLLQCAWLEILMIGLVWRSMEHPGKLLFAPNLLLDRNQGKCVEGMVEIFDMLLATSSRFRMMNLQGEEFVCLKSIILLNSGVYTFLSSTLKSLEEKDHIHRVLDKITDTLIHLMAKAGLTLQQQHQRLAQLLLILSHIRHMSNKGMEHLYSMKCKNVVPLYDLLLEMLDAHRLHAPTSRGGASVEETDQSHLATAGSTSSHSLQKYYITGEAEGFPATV
Procedure: (§1) Cells were transiently transfected using
(§2) Triplicate transfections were performed using 180 ng 3×ERE-TK-Luc (reporter vector), 30 ng pRL-CMV (normalization vector), and 270 ng pCDNA ER-α (or ER-α mutation).
(§3) Following 24 hour incubation the medium was removed and the cells were lysed in 40 μL of lysis buffer (25 mM Tris Phosphate, 2 mM CDTA, 10% Glycerol, 0.5% Triton X-100, 2 mM DTT).

ER-α L536P = target: T2, ER-α L536P (Homo sapiens, UniProt P03372, L536P); conditions: Agonist Mode; for Efficacy (Emax): −E2, relative to vehicle treated wild-type ER-α
T2 sequence (P03372 1-595 L536P): T1 sequence (P03372 1-595 E380Q) with Q380E, L536P
Procedure: as §1, §2, §3

ER-α L536R = target: T3, ER-α L536R (Homo sapiens, UniProt P03372, L536R)
T3 sequence (P03372 1-595 L536R): T1 sequence (P03372 1-595 E380Q) with Q380E, L536R
Procedure: as §1, §2, §3

ER-α Y537N = target: T4, ER-α Y537N (Homo sapiens, UniProt P03372, Y537N)
T4 sequence (P03372 1-595 Y537N): T1 sequence (P03372 1-595 E380Q) with Q380E, Y537N
Procedure: as §1, §2, §3

[1] = Agonist Mode, −E2, relative to vehicle treated wild-type ER-α
[2] = Antagonist Mode, +E2, relative to vehicle treated wild-type ER-α

SMILES | Percent inhibition compared to vehicle (ER-α E380Q; −E2) | Efficacy (Emax) (ER-α E380Q) | Percent inhibition compared to vehicle (ER-α L536P; −E2) | Efficacy (Emax) (ER-α L536P) | Percent inhibition compared to vehicle (ER-α L536R; Agonist Mode, −E2) | Efficacy (Emax) (ER-α L536R; [1]) | Percent inhibition compared to vehicle (ER-α L536R; Antagonist Mode, +E2) | Efficacy (Emax) (ER-α L536R; [2]) | Percent inhibition compared to vehicle (ER-α Y537N; Agonist Mode, −E2) | Efficacy (Emax) (ER-α Y537N; [1]) | Percent inhibition compared to vehicle (ER-α Y537N; Antagonist Mode, +E2) | Efficacy (Emax) (ER-α Y537N; [2])
CC1=C(c2cccc(O)c2)[C@H](c2ccc(OCCN3CC(CF)C3)cc2)Oc2ccc(O)cc21 [Compound 4-23, (S)-2-(4-(2-(3-(fluoromethyl)azetidin-1-yl)ethoxy)phenyl)-3-(3-hydroxyphenyl)-4-methyl-2H-chromen-6-ol] | 73% | 0.57 | 68% | 1.01 | 80% | 0.29 ± 0.22 | 94% | 0.15 ± 0.07 | 92% | 0.32 ± 0.27 | 96% | 0.16 ± 0.08
C[C@]12CC[C@@H]3c4ccc(O)cc4C[C@@H](CCCCCCCCC[S+]([O-])CCCC(F)(F)C(F)(F)F)[C@H]3[C@@H]1CC[C@@H]2O (stereo partly drawn) [Fulvestrant] | – | 0.38 | – | 0.42 | – | 0.32 ± 0.12 | – | 0.30 ± 0.11 | – | 0.30 ± 0.18 | – | 0.20 ± 0.20
